In EP3262942A1, “SELENODIARYLS FOR USE AS MICROBICIDE OR AS MEDICINE” (Evonik Degussa GmbH, priority 2016, dated 2018):

Columns and labels:
[1] = test system: P. infestans; assay: microbe, parasite or virus in culture; format: cell-based, Phytophthora infestans
[2] = test system: M. grisea H2O; assay: microbe, parasite or virus in culture; format: cell-based, Magnaporthe grisea
[3] = test system: M. grisea CM; assay: microbe, parasite or virus in culture; format: cell-based, Magnaporthe grisea
[4] = test system: Mucor miehei; assay: Growth test in microtiter plates, HA medium, 24 h, visual evaluation; format: cell-based; set-up: key to Aktivität gegenüber M. miehei: +: kein Wachstum im Vergleich zur Wachstumskontrolle; -: Wachstum wie Wachstumskontrolle
[5] = test system: Penicillium notatum; assay: as above; format: cell-based; set-up: key: +: kein Wachstum im Vergleich zur Wachstumskontrolle; -: Wachstum wie Wachstumskontrolle
[6] = test system: Paecilomyces variotii; assay: as above; format: cell-based; set-up: key: +: kein Wachstum im Vergleich zur Wachstumskontrolle; -: Wachstum wie Wachstumskontrolle
[7] = test system: Candida albicans; assay: as above; format: cell-based; set-up: key: +: kein Wachstum im Vergleich zur Wachstumskontrolle; -: Wachstum wie Wachstumskontrolle
[8] = test system: Botrytis cinerea; assay: microbe, parasite or virus in culture; format: cell-based
[9] = test system: Lepidium sativum; assay: Crop plant growth test, seeds on filter discs, 4 days, visual evaluation; format: in vivo
Description: (§1) Testsubstanzen und Kontrollen werden auf Filterrondellen in Mikrotiterplatten (48 well) vorgelegt und das verwendete Lösungsmittel (DMSO) über Lyophilisation entfernt. Anschließend werden ca. 12 Samen pro Vertiefung (Setaria italical Lepidium sativum) zugeben, mit 200 µl sterilem Leitungswasser pro Vertiefung versetzt, mit einem Deckel versehen und in einer feuchten Kammer für 4 Tage im Pflanzenbrutschrank inkubiert (16h-Licht-8h-Dunkel-Rhythmus). Die Auswertung des Tests erfolgt optisch (+: mind. 75 % Wachstumshemmung im Vergleich zur Kontrolle, -: weniger als 75 % Wachstumshemmung im Vergleich zur Kontrolle.

[10] = test system: Setaria italica; assay: as above; format: in vivo
Description: as §1

COc1cc(C)c([Se]c2cc(OC)c(OC)cc2C)cc1OC [Verbindung 27, Bis(3,4-dimethoxy-6-methylphenyl)selen]
Aktivität gegenüber P. infestans ([1]; 5µg/mL): - (zwischen 0 und 25 % der Sporen nicht gekeimt)
Aktivität gegenüber P. infestans ([1]; 10µg/mL): - (zwischen 0 und 25 % der Sporen nicht gekeimt)
Aktivität gegenüber P. infestans ([1]; 25µg/mL): - (zwischen 0 und 25 % der Sporen nicht gekeimt)
Aktivität gegenüber P. infestans ([1]; 50µg/mL): - (zwischen 0 und 25 % der Sporen nicht gekeimt)
Wirksamkeit gegenüber P. infestans ([1]; […]): keine Wirkung
Aktivität gegenüber M. grisea H2O ([2]; 5µg/mL): - (zwischen 0 und 25 % der Sporen nicht gekeimt)
Aktivität gegenüber M. grisea H2O ([2]; 10µg/mL): - (zwischen 0 und 25 % der Sporen nicht gekeimt)
Aktivität gegenüber M. grisea H2O ([2]; 25µg/mL): - (zwischen 0 und 25 % der Sporen nicht gekeimt)
Aktivität gegenüber M. grisea H2O ([2]; 50µg/mL): + (zwischen 25 und 50 % der Sporen nicht gekeimt)
Aktivität gegenüber M. grisea CM ([3]; 5µg/mL): - (zwischen 0 und 25 % der Sporen nicht gekeimt)
Aktivität gegenüber M. grisea CM ([3]; 10µg/mL): - (zwischen 0 und 25 % der Sporen nicht gekeimt)
Aktivität gegenüber M. grisea CM ([3]; 25µg/mL): + (zwischen 25 und 50 % der Sporen nicht gekeimt)
Aktivität gegenüber M. grisea CM ([3]; 50µg/mL): + (zwischen 25 und 50 % der Sporen nicht gekeimt)
Aktivität gegenüber M. miehei ([4]; 10µg/mL): -
Aktivität gegenüber M. miehei ([4]; 50µg/mL): -
Aktivität gegenüber P. notatum ([5]; 10µg/mL): -
Aktivität gegenüber P. notatum ([5]; 50µg/mL): -
Aktivität gegenüber P. variotii ([6]; 10µg/mL): -
Aktivität gegenüber P. variotii ([6]; 50µg/mL): -
Aktivität gegenüber C. albicans ([7]; 10µg/mL): -
Aktivität gegenüber C. albicans ([7]; 50µg/mL): -
Aktivität gegenüber B. cinerea ([8]; 5µg/mL): - (key: +++: mehr als 75 % der Sporen nicht gekeimt; ++: zwischen 50 und 75 % der Sporen nicht gekeimt; +: zwischen 25 und 50 % der Sporen nicht gekeimt; -: zwischen 0 und 25 % der Sporen nicht gekeimt)
Aktivität gegenüber B. cinerea ([8]; 10µg/mL): - (key: +++: mehr als 75 % der Sporen nicht gekeimt; ++: zwischen 50 und 75 % der Sporen nicht gekeimt; +: zwischen 25 und 50 % der Sporen nicht gekeimt; -: zwischen 0 und 25 % der Sporen nicht gekeimt)
Aktivität gegenüber B. cinerea ([8]; 25µg/mL): - (key: +++: mehr als 75 % der Sporen nicht gekeimt; ++: zwischen 50 und 75 % der Sporen nicht gekeimt; +: zwischen 25 und 50 % der Sporen nicht gekeimt; -: zwischen 0 und 25 % der Sporen nicht gekeimt)
Aktivität gegenüber B. cinerea ([8]; 50µg/mL): - (key: +++: mehr als 75 % der Sporen nicht gekeimt; ++: zwischen 50 und 75 % der Sporen nicht gekeimt; +: zwischen 25 und 50 % der Sporen nicht gekeimt; -: zwischen 0 und 25 % der Sporen nicht gekeimt)
Aktivität gegenüber Nutzpflanzen: L. sativum ([9]; 10µg/R): - (weniger als 75 % Wachstumshemmung im Vergleich zur Kontrolle)
Aktivität gegenüber Nutzpflanzen: L. sativum ([9]; 20µg/R): - (weniger als 75 % Wachstumshemmung im Vergleich zur Kontrolle)
Aktivität gegenüber Nutzpflanzen: L. sativum ([9]; 50µg/R): - (weniger als 75 % Wachstumshemmung im Vergleich zur Kontrolle)
Aktivität gegenüber Nutzpflanzen: S. italica ([10]; 10µg/R): + (mind. 75 % Wachstumshemmung im Vergleich zur Kontrolle)
Aktivität gegenüber Nutzpflanzen: S. italica ([10]; 20µg/R): - (weniger als 75 % Wachstumshemmung im Vergleich zur Kontrolle)
Aktivität gegenüber Nutzpflanzen: S. italica ([10]; 50µg/R): + (mind. 75 % Wachstumshemmung im Vergleich zur Kontrolle)
